Target: T1, Os4BGlu18 (Oryza sativa, UniProt Q7XSK0)
T1 construct: gene BGLU18; mature protein without predicted signal peptide (1-26); N-terminal thioredoxin-His6 tag cut with enterokinase, a few tag residues remain; residues 27-500 seen, last five (LHENQ) disordered
Test: X-ray crystallography of soaked crystal, […] Å
Conditions: crystals soaked in 1 mM for 20 min, MES pH 6.0; glycone-binding active site (subsite -1)

T1 sequence (Q7XSK0 27-505): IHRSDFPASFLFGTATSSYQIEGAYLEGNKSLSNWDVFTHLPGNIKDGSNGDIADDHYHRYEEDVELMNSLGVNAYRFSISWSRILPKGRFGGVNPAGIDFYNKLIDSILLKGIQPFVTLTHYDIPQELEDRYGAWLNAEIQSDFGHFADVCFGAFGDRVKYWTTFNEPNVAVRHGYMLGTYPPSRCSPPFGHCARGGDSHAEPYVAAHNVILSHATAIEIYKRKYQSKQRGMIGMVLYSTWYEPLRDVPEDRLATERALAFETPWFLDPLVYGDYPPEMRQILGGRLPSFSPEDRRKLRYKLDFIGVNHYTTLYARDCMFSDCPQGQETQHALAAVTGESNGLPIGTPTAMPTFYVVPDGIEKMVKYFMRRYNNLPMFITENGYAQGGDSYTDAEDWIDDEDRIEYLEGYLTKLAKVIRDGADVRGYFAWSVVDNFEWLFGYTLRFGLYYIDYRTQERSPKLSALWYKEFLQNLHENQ

## O=C1O[C@H](CO)[C@@H](O)[C@H](O)[C@H]1O [DG, δ-gluconolactone]
  X-ray crystallography of soaked crystal, 2.1 Å: could be observed in the active site pocket

Reference: PMC7817009, “Structural analysis of rice Os4BGlu18 monolignol β-glucosidase” (PLoS ONE, 2021)
